According to the supplement of paper PMC10307832:

How the values were obtained:
Assay in all cases: relative viability (nuclei count vs DMSO), 5 days (fraction); higher = more cells survive
LXF-289 = tested on: LXF-289
Method in brief: (§1)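 Relative viability was taken as the ratio of nuclei in treated wells to nuclei in vehicle wells. Lung cancer cell lines in 1536-well plates received compounds by pin tool one day after seeding, either one drug alone or a fixed anchor-drug dose plus five library-drug doses (not always all listed) in √10 steps. Nuclei were counted on 4× images after 5 days of treatment, and values are medians of duplicate plates.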

NCI-H358 = tested on: NCI-H358
Method in brief: as §1

NCI-H2085 = tested on: NCI-H2085
Method in brief: as §1

LCLC-97TM1 = tested on: LCLC-97TM1
Method in brief: as §1

NCI-H460 = tested on: NCI-H460
Method in brief: as §1

LU99A = tested on: LU99A
Method in brief: as §1

NCI-H2170 = tested on: NCI-H2170
Method in brief: as §1

EPLC-272H = tested on: EPLC-272H
Method in brief: as §1

NCI-H1975 = tested on: NCI-H1975
Method in brief: as §1

SK-LU-1 = tested on: SK-LU-1
Method in brief: as §1

COR-L 105 = tested on: COR-L 105
Method in brief: as §1

HOP-62 = details: first compound 0.005 µM
Method in brief: as §1

SMILES: CC1(C)CCC(c2ccc(Cl)cc2)=C(CN2CCN(c3ccc(C(=O)NS(=O)(=O)c4ccc(N[C@H](CCN5CCOCC5)CSc5ccccc5)c(S(=O)(=O)C(F)(F)F)c4)cc3)CC2)C1 [Navitoclax] + Cc1nc(Nc2ncc(C(=O)Nc3c(C)cccc3Cl)s2)cc(N2CCN(CCO)CC2)n1 [Dasatinib] (partner 0.075 µM)
- relative viability (LXF-289; first compound 0.005 µM): 0.239
- relative viability (LXF-289; first compound 0.01581 µM): 0.308
- relative viability (LXF-289; first compound 0.05 µM): 0.193
- relative viability (LXF-289; first compound 0.1581 µM): 0.256
- relative viability (LXF-289; first compound 0.5 µM): 0.201
- relative viability (NCI-H358; first compound 0.005 µM): 0.188
- relative viability (NCI-H358; first compound 0.01581 µM): 0.219
- relative viability (NCI-H358; first compound 0.05 µM): 0.142
- relative viability (NCI-H358; first compound 0.1581 µM): 0.165
- relative viability (NCI-H358; first compound 0.5 µM): 0.199
- relative viability (NCI-H2085; first compound 0.005 µM): 0.234
- relative viability (NCI-H2085; first compound 0.01581 µM): 0.234
- relative viability (NCI-H2085; first compound 0.05 µM): 0.199
- relative viability (NCI-H2085; first compound 0.1581 µM): 0.228
- relative viability (NCI-H2085; first compound 0.5 µM): 0.315
- relative viability (LCLC-97TM1; first compound 0.005 µM): 0.822
- relative viability (LCLC-97TM1; first compound 0.01581 µM): 0.939
- relative viability (LCLC-97TM1; first compound 0.05 µM): 0.648
- relative viability (LCLC-97TM1; first compound 0.1581 µM): 0.825
- relative viability (LCLC-97TM1; first compound 0.5 µM): 0.826
- relative viability (NCI-H460; first compound 0.005 µM): 0.522
- relative viability (NCI-H460; first compound 0.01581 µM): 0.609
- relative viability (NCI-H460; first compound 0.05 µM): 0.651
- relative viability (NCI-H460; first compound 0.1581 µM): 0.53
- relative viability (NCI-H460; first compound 0.5 µM): 0.483
- relative viability (LU99A; first compound 0.005 µM): 0.542
- relative viability (LU99A; first compound 0.01581 µM): 0.879
- relative viability (LU99A; first compound 0.05 µM): 0.418
- relative viability (LU99A; first compound 0.1581 µM): 0.618
- relative viability (LU99A; first compound 0.5 µM): 0.821
- relative viability (NCI-H2170; first compound 0.005 µM): 0.557
- relative viability (NCI-H2170; first compound 0.01581 µM): 0.528
- relative viability (NCI-H2170; first compound 0.05 µM): 0.397
- relative viability (NCI-H2170; first compound 0.1581 µM): 0.595
- relative viability (NCI-H2170; first compound 0.5 µM): 0.574
- relative viability (EPLC-272H; first compound 0.005 µM): 0.372
- relative viability (EPLC-272H; first compound 0.05 µM): 0.359
- relative viability (EPLC-272H; first compound 0.1581 µM): 0.361
- relative viability (EPLC-272H; first compound 0.5 µM): 0.345
- relative viability (NCI-H1975; first compound 0.005 µM): 0.346
- relative viability (NCI-H1975; first compound 0.01581 µM): 0.36
- relative viability (NCI-H1975; first compound 0.05 µM): 0.415
- relative viability (NCI-H1975; first compound 0.1581 µM): 0.337
- relative viability (NCI-H1975; first compound 0.5 µM): 0.323
- relative viability (SK-LU-1; first compound 0.005 µM): 0.182
- relative viability (SK-LU-1; first compound 0.01581 µM): 0.169
- relative viability (SK-LU-1; first compound 0.05 µM): 0.193
- relative viability (SK-LU-1; first compound 0.1581 µM): 0.203
- relative viability (SK-LU-1; first compound 0.5 µM): 0.0932
- relative viability (COR-L 105; first compound 0.005 µM): 0.331
- relative viability (COR-L 105; first compound 0.01581 µM): 0.458
- relative viability (COR-L 105; first compound 0.05 µM): 0.331
- relative viability (COR-L 105; first compound 0.1581 µM): 0.342
- relative viability (COR-L 105; first compound 0.5 µM): 0.306
- relative viability (HOP-62): 0.593
